Measurements reported in patent US10329289B2, “6,7-dihydro-5H-pyrrolo[3,4-B]pyridin-5-one allosteric modulators of the M4 muscarinic acetylcholine receptor” (Merck Sharp & Dohme Corp., priority 2015, dated 2019).

target: T1, human M4 muscarinic acetylcholine receptor (Homo sapiens, UniProt P08173); assay: human FLIPR-based M4 PAM assay (Ca2+ mobilization, CHO-K1 cells with human M4 receptor and Gαqi5); assay type: cell-based; conditions: acetylcholine at 20% of maximum response, read-out: M4 PAM IP
T1 construct: expressed in transfected cells; host or cells: CHO-K1
T1 sequence (P08173 1-479): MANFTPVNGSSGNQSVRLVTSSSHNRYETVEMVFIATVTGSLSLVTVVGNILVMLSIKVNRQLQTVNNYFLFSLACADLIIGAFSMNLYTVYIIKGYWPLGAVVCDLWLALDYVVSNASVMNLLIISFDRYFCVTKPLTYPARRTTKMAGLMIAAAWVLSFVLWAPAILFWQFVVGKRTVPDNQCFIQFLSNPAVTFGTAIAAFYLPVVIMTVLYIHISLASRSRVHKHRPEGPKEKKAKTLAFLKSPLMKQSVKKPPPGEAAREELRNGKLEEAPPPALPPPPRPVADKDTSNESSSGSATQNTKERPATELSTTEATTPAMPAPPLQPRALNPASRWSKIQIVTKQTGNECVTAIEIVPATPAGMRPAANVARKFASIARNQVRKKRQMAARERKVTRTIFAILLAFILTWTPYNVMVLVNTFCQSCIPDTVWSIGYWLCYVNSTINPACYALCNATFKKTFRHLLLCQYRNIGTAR
In short: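 CHO-K1 cells stably expressing human M4 and chimeric Gαqi5 were dye-loaded ~1 h at 37 °C and read for Ca2+ fluorescence. Compound followed by acetylcholine at an EC20 (sometimes an EC70 third addition); inflection point from a 4-parameter logistic fit.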

Row | EC50 | SMILES
1 | 82 nM | COc1ccc(O[C@@H]2CCN(c3nc4c(cc3C)C(=O)NC4)C[C@@H]2F)cn1 [Example 164, 2-((3S,4R)-3-fluoro-4-((6-methoxypyridin-3-yl)oxy)piperidin-1-yl)-3-methyl-6,7-dihydro-5H-pyrrolo[3,4-b]pyridin-5-one]
2 | 202 nM | CCc1cc2c(nc1N1CC[C@@H](Oc3cnc4c(c3)COC4)[C@@H](F)C1)CNC2=O [Example 164A, 2-((3S,4R)-4-((5,7-dihydrofuro[3,4-b]pyridin-3-yl)oxy)-3-fluoropiperidin-1-yl)-3-ethyl-6,7-dihydro-5H-pyrrolo[3,4-b]pyridin-5-one]
3 | 83 nM | Cc1c(N2CC[C@@H](Oc3cnc4c(c3)COC4)[C@@H](F)C2)nc2c(c1C)C(=O)NC2 [Example 165A, 2-((3S,4R)-4-((5,7-dihydrofuro[3,4-b]pyridin-3-yl)oxy)-3-fluoropiperidin-1-yl)-3,4-dimethyl-6,7-dihydro-5H-pyrrolo[3,4-b]pyridin-5-one]
4 | 61 nM | CCc1cc2c(nc1N1CCC(Oc3ccc4c(c3)C[C@H](O)C4)CC1)CNC2=O [Example 166A, (R)-3-ethyl-2-(4-((2-hydroxy-2,3-dihydro-1H-inden-5-yl)oxy)piperidin-1-yl)-6,7-dihydro-5H-pyrrolo[3,4-b]pyridin-5-one]
5 | 57 nM | CCc1cc2c(nc1N1CCC(Oc3ccc4c(c3)C[C@@H](O)C4)CC1)CNC2=O [Example 166B, (S)-3-ethyl-2-(4-((2-hydroxy-2,3-dihydro-1H-inden-5-yl)oxy)piperidin-1-yl)-6,7-dihydro-5H-pyrrolo[3,4-b]pyridin-5-one]
6 | 14 nM | Cc1cc2c(nc1N1CCC(Oc3ccc4[nH]ncc4c3)CC1)CNC2=O [Example 167, 2-(4-((1H-indazol-5-yl)oxy)piperidin-1-yl)-3-methyl-6,7-dihydro-5H-pyrrolo[3,4-b]pyridin-5-one]
7 | 188 nM | Cc1cc2c(nc1N1CCC(Oc3ccc4c(c3)C[S+]([O-])C4)CC1)CNC2=O (stereo not drawn) [Example 167A, 3-methyl-2-(4-((2-oxido-1,3-dihydrobenzo[c]thio-phen-5-yl)oxy)piperidin-1-yl)-6,7-dihydro-5H-pyrrolo[3,4-b]pyridin-5-one]
8 | 119 nM | Cc1cc2c(nc1N1CCC(Oc3ccc(OCCN(C)C)nc3)CC1)CNC2=O [Example 168, 2-(4-((6-(2-(dimethylamino)ethoxy)pyridin-3-yl)oxy)piperidin-1-yl)-3-methyl-6,7-dihydro-5H-pyrrolo[3,4-b]pyridin-5-one]
9 | 183 nM | Cc1cc2c(nc1N1CCC(Oc3ccc(OCC(C)(C)N)nc3)CC1)CNC2=O [Example 169, 2-(4-((6-(2-amino-2-methylpropoxy)pyridin-3-yl)oxy)piperidin-1-yl)-3-methyl-6,7-dihydro-5H-pyrrolo[3,4-b]pyridin-5-one]
10 | 180 nM | CCn1cc(OC2CCN(c3nc4c(cc3C)C(=O)NC4)CC2)cn1 [Example 169A, 2-(4-((1-ethyl-1H-pyrazol-4-yl)oxy)piperidin-1-yl)-3-methyl-6,7-dihydro-5H-pyrrolo[3,4-b]pyridin-5-one]
11 | 40 nM | Cc1cc2c(nc1N1CCC(Oc3ccc(OCCO)nc3)CC1)CNC2=O [Example 170, 2-(4-((6-(2-hydroxyethoxy)pyridin-3-yl)oxy)piperidin-1-yl)-3-methyl-6,7-dihydro-5H-pyrrolo[3,4-b]pyridin-5-one]
12 | 129 nM | Cc1cc2c(nc1N1CCC(Oc3cnn(-c4ccccc4)c3)CC1)CNC2=O [Example 170A, 3-methyl-2-(4-((1-phenyl-1H-pyrazol-4-yl)oxy)piperidin-1-yl)-6,7-dihydro-5H-pyrrolo[3,4-b]pyridin-5-one]
13 | 79 nM | COCCOc1ccc(OC2CCN(c3nc4c(cc3C)C(=O)NC4)CC2)cn1 [Example 171, 2-(4-((6-(2-methoxyethoxy)pyridin-3-yl)oxy)piperidin-1-yl)-3-methyl-6,7-dihydro-5H-pyrrolo[3,4-b]pyridin-5-one]
14 | 491 nM | Cc1cc2c(nc1N1CC[C@@H](OCC3(C)CC3)C(F)(F)C1)CNC2=O [Example 171A, (R)-2-(3,3-difluoro-4-((1-methylcyclopropyl)meth-oxy)piperidin-1-yl)-3-methyl-6,7-dihydro-5H-pyrrolo[3,4-b]pyridin-5-one]
15 | 14 nM | Cc1cc2c(nc1N1CC[C@H](OCC3(C)CC3)C(F)(F)C1)CNC2=O [Example 171B, (S)-2-(3,3-difluoro-4-((1-methylcyclopropyl)meth-oxy)piperidin-1-yl)-3-methyl-6,7-dihydro-5H-pyrrolo[3,4-b]pyridin-5-one]
16 | 125 nM | Cc1cc2c(nc1N1CCC(OCC3CCC3)CC1)CNC2=O [Example 172, 2-(4-(cyclobutylmethoxy)piperidin-1-yl)-3-methyl-6,7-dihydro-5H-pyrrolo[3,4-b]pyridin-5-one]
17 | 905 nM | Cc1cc2c(nc1N1CCC(OCC(F)(F)F)CC1)CNC2=O [Example 172A, 3-methyl-2-(4-(2,2,2-trifluoroethoxy)piperidin-1-yl)-6,7-dihydro-5H-pyrrolo[3,4-b]pyridin-5-one]

Row | EC50 | SMILES
18 | 313 nM | Cc1cc2c(nc1N1CCC(Oc3ccc(OCCN4CCC4)nc3)CC1)CNC2=O [Example 173, 2-(4-((6-(2-(azetidin-1-yl)ethoxy)pyridin-3-yl)oxy)piperidin-1-yl)-3-methyl-6,7-dihydro-5H-pyrrolo[3,4-b]pyridin-5-one]
19 | 207 nM | CCc1cc2c(nc1N1CCC(Oc3cncc(C)c3)CC1)CNC2=O [Example 173A, 3-ethyl-2-(4-((5-methylpyridin-3-yl)oxy)piperidin-1-yl)-6,7-dihydro-5H-pyrrolo[3,4-b]pyridin-5-one]
20 | 45 nM | CC(=O)NCCOc1ccc(OC2CCN(c3nc4c(cc3C)C(=O)NC4)CC2)cn1 [Example 174, N-(2-((5-((1-(3-methyl-5-oxo-6,7-dihydro-5H-pyrrolo[3,4-b]pyridin-2-yl)piperidin-4-yl)oxy)pyridin-2-yl)oxy)ethyl)acetamide]
21 | 22 nM | Cc1c(N2CC[C@@H](OCC3(C)CC3)[C@H](F)C2)nc2c(c1C)C(=O)NC2 [Example 174A, 2-((3R,4R)-3-fluoro-4-((1-methylcyclopropyl)meth-oxy)piperidin-1-yl)-3,4-dimethyl-6,7-dihydro-5H-pyrrolo[3,4-b]pyridin-5-one]
22 | 139 nM | Cc1cc2c(nc1N1CCC(OCC3CCCC3)CC1)CNC2=O [Example 175, 2-(4-(cyclopentylmethoxy)piperidin-1-yl)-3-methyl-6,7-dihydro-5H-pyrrolo[3,4-b]pyridin-5-one]
23 | 3100 nM | Cc1cc2c(nc1N1CCC(OCc3ccncc3)CC1)CNC2=O [Example 175A, 3-methyl-2-(4-(pyridin-4-ylmethoxy)piperidin-1-yl)-6,7-dihydro-5H-pyrrolo[3,4-b]pyridin-5-one]
24 | 39 nM | Cc1cc2c(nc1N1CCC(OCC3(C)CC3)CC1)CNC2=O [Example 176, 3-methyl-2-(4-((1-methylcyclopropyl)meth-oxy)piperidin-1-yl)-6,7-dihydro-5H-pyrrolo[3,4-b]pyridin-5-one]
25 | 264 nM | CCc1cc2c(nc1N1CCC(OCC3CC3)CC1)CNC2=O [Example 176A, 2-(4-(cyclopropylmethoxy)piperidin-1-yl)-3-ethyl-6,7-dihydro-5H-pyrrolo[3,4-b]pyridin-5-one]
26 | 1810 nM | Cc1cc2c(nc1N1CCC(OCC3CCOC3)CC1)CNC2=O (stereo not drawn) [Example 177, 3-methyl-2-(4-((tetrahydrofuran-3-yl)methoxy)piperidin-1-yl)-6,7-dihydro-5H-pyrrolo[3,4-b]pyridin-5-one]
27 | 2480 nM | Cc1cc2c(nc1N1CCC(OCC3(C)CCCC3)CC1)CNC2=O [Example 178, 3-methyl-2-(4-((1-methylcyclopentyl)meth-oxy)piperidin-1-yl)-6,7-dihydro-5H-pyrrolo[3,4-b]pyridin-5-one]
28 | 18 nM | Cc1cc2c(nc1N1CC[C@@H](Oc3ccc4c(c3)CCOC4)[C@@H](F)C1)CNC2=O [Example 178A, 2-((3S,4R)-3-fluoro-4-(isochroman-6-yloxy)piperidin-1-yl)-3-methyl-6,7-dihydro-5H-pyrrolo[3,4-b]pyridin-5-one]
29 | 18 nM | Cc1cc2c(nc1N1CC[C@@H](Oc3ccc4c(c3)COCC4)[C@@H](F)C1)CNC2=O [Example 178B, 2-((3S,4R)-3-fluoro-4-(isochroman-7-yloxy)piperidin-1-yl)-3-methyl-6,7-dihydro-5H-pyrrolo[3,4-b]pyridin-5-one]
30 | 1650 nM | Cc1cc2c(nc1N1CCC(OCC3(F)CCCC3)CC1)CNC2=O [Example 180, 2-(4-((1-fluorocyclopentyl)meth-oxy)piperidin-1-yl)-3-methyl-6,7-dihydro-5H-pyrrolo[3,4-b]pyridin-5-one]
31 | 3790 nM | Cc1cc2c(nc1N1CCC(OCC(C)(C)C)CC1)CNC2=O [Example 182, 3-methyl-2-(4-(neopentyloxy)piperidin-1-yl)-6,7-dihydro-5H-pyrrolo[3,4-b]pyridin-5-one]
32 | 473 nM | Cc1cc2c(nc1N1CCC(Oc3ccc4nccn4c3)CC1)CNC2=O [Example 182A, 2-(4-(imidazo[1,2-a]pyridin-6-yloxy)piperidin-1-yl)-3-methyl-6,7-dihydro-5H-pyrrolo[3,4-b]pyridin-5-one]
33 | 4780 nM | Cc1cc2c(nc1N1CCC(OCc3ncco3)CC1)CNC2=O [Example 183, 3-methyl-2-(4-(oxazol-2-ylmethoxy)piperidin-1-yl)-6,7-dihydro-5H-pyrrolo[3,4-b]pyridin-5-one]
